# Measured values taken from patent US7662388B2, “Endogenous peptide and active subfragments thereof” (Innoventus Project AB, priority 2003, dated 2010).
# What was measured:
# [1] = tested on: Primary bovine adrenal cortex capillary endothelial (BCE) cells; test: chemotaxis assay of synthetic peptides (Table 2); format: cell-based; conditions: for Inhibition of chemotaxis: 100 ng/ml peptide, FGF-2 10 ng/ml, BCE cells, 5 h; for inhibition of chemotaxis, stated in words: chemotaxis assay of table 2
# Procedure: Synthetic peptides were produced by Multiple Peptide Systems, San Diego Calif., USA, and dissolved in 1 mM ZnCl2/0.5xPBS at a stock concentration of 1 mg/ml. The sequences of the peptides were as follows:
# A migration assay was performed in a modified Boyden chamber as described earlier (Auerbach et al., 1991) using micropore polycarbonate filters (8 μm thick, 8 μm pore) coated with type-1 collagen solution at 100 μg/ml (Vitrogen 100, Collagen Corp). Primary bovine adrenal cortex capillary endothelial (BCE) cells were trypsinized and resuspended at a concentration of 7.5×10^5 cells/ml in Dulbecco's modified essential medium (Invitrogen) containing 0.25% BSA and Trasylol at 1000 KIE. The cell suspension was placed in the upper chamber. In the lower chamber below the filter was placed medium containing 0.25% BSA and when indicated, 10 ng/ml fibroblast growth factor (FGF-2; Peprotech). Recombinant HRGP produced in 293 cells, alternatively, synthetic peptides, all at a final concentration of 100 ng/ml (or as indicated), was placed in both chambers either alone or in combination with FGF-2. After 5 h at 37° C., the medium was removed and cells sticking to the filter were fixed in pure methanol and stained with Giemsa stain. The number of cells on the lower side of the filter was counted using an image analysis software (Easy Image Analysis) from TeknoOptik, Sweden. All samples were analyzed in series of at least six parallel wells for each treatment.
# endothelial cells = test: chemotaxis of endothelial cells towards FGF-2, truncated HRGP proteins; format: cell-based; conditions: recombinant truncated forms of HRGP
# Procedure: (§1) A migration assay was performed in a modified Boyden chamber as described earlier (Auerbach et al., 1991) using micropore polycarbonate filters (8 μm thick, 8 μm pore) coated with type-1 collagen solution at 100 μg/ml (Vitrogen 100, Collagen Corp). BCE, PAE/FGFR-1 or NIH 3T3 cells were preincubated or not with HRGP (100 ng/ml) for 30 min, trypsinised and resuspended at a concentration of 7.5×10^5 cells/ml in Dulbecco's modified essential medium (Invitrogen) containing 0.25% BSA and Trasylol at 1000 KIE. FGF-2 and VEGF-A was used at 5 ng/ml, HRGP and the protein C inhibitor (PCI) at 100 ng/ml and BSA at 0.25%. After 5 h at 37° C., migrated cells were stained with Giemsa and counted using an image analysis software (Easy Image Analysis) from Tekno Optik AB, Sweden. All samples were analysed in at least six parallel wells for each treatment.
# To determine which part of HRGP was responsible for the anti-angiogenic effect, recombinant truncated forms of the protein were produced (FIG. 5A). Truncated versions containing the C-terminal part of HRGP, but lacking an intact N-terminus, were not possible to produce, maybe due to instability.
# primary BCE cells = test: chemotaxis (migration) assay in modified Boyden chamber, BCE cells; format: cell-based, bovine; conditions: 100 ng/ml protein, FGF-2 5 ng/ml, 5 h
# Procedure: The porcine aortic endothelial (PAE) cell line overexpressing FGF receptor-1 (FGFR-1) (Wennström et al 1992) was cultured in Ham's F12/10% fetal bovine serum (FCS) and NIH 3T3 murine fibroblasts were cultured in Dulbecco's modified medium (DMEM)/10% newborn calf serum (NCS). F12, DMEM and serum were bought from Life Technologies. Primary bovine adrenal cortex capillary endothelial (BCE) cells were cultured on gelatin-coated dishes in DMEM/10% NCS and 2 ng/ml FGF-2 (Boehringer Mannheim). For chemotaxis assays, both PAE and NIH 3T3 cells were serum-starved over night in 0.1% BSA and BCE cells in 0.5% NCS. Human embryonic kidney (HEK) 293-EBNA cells were cultured in DMEM/10% FCS. Approximately every second month they were given 0.25 mg/ml G418 (Calbiochem) to ensure positive selection of the EBNA-1 expressing cells.
# as §1
# T241 fibrosarcoma cells = test: fibrosarcoma tumour growth in mice (HRGP); format: in vivo; conditions: 14 days
# Procedure: Animal work was carried out at the local animal facility and was approved by the Uppsala University board of animal experimentation and thus performed according to the UKCCCR guidelines for the welfare of animals in experimental neoplasia (Workman et al (1988)). The mice were anesthetized with isoflurane (Forene; Abbott) during all manipulations. Female, 5 week old, C57BL6/1 mice (Mollegard/Bomhultgard, Denmark) were injected with 0.5×10^6 T241 fibrosarcoma cells subcutaneously (s.c.) into the left flank. Animals carrying palpable tumours were randomized (n=7-10 animals/treatment group) and received treatment with vehicle (PBS), 4 mg/kg/day of pHRGP or 5 mg/kg/day of human IgG or His-HRGP, given as daily subcutaneous injections in the right flank. The tumours were measured with a caliper once a day, in a blind procedure, and volumes were calculated by the formula […]. When the tumours reached the upper limit of 2 cm^3, the mice were sacrificed. Three animals in each group were perfused with 4% paraformaldehyde in PBS pH 7.4. Tumours were embedded in paraffin according to standard histological procedures and sectioned at […] thickness.
# C57/bl6 mice were inoculated subcutaneously with T241 fibrosarcoma cells on their left flank and when the tumours were palpable (after 4-6 days), a daily treatment was initiated with HRGP or control (PBS; FIG. 2A, or human IgG; FIG. 2B). Endostatin was included in one study for comparison (FIG. 2B). The treatment was given as subcutaneous injections in the right flank until the size of the control tumours reached the upper limit of […] (11 days; FIG. 2A, 14 days; FIG. 2B). Injections with both pHRGP (4 mg/kg/day) and His-HRGP (5 mg/kg/day) led to a drastic reduction in tumour growth and at the time of sacrifice, the size of the tumours was reduced by 67% (FIG. 2A) and 61% (FIG. 2B) respectively, compared to control-treated animals. Endostatin treatment (25 mg/kg/day) lacked significant inhibitory effect on tumour growth in this model (32% decrease).
molecule,measurement,setting,value
AHHPHEHDTHRQHPHG [Pep 10],Inhibition of chemotaxis,[1],+
Ac-AHHPHEHDTH-NH2 [Pep 13A],Inhibition of chemotaxis,[1],+
Ac-AHHPHEHDTHRQHPH-NH2 [Pep 12A],Inhibition of chemotaxis,[1],+
Ac-EHDTH-NH2 [Pep 15A],Inhibition of chemotaxis,[1],+
DLHPHEQHPHEHDTHG [Pep 11A],Inhibition of chemotaxis,[1],− (as compared to Pep 8 and Pep 11A)
same,"inhibition of chemotaxis, stated in words",[1],not to be effective
DLHPHKHHSHEQHPHG [Pep 8],Inhibition of chemotaxis,[1],− (as compared to Pep 8 and Pep 11A)
same,"inhibition of chemotaxis, stated in words",[1],not to be effective
KHHSHEQHPHGHHPHAHHPHEHDTHG [Pep 9A],Inhibition of chemotaxis,[1],+
"His 4: recombinant truncated version of HRGP that covers the complete central region (protein, listed as Homo sapiens) VSPTDCSAVEPEAEKALDLINKRRRDGYLFQLLRIADAHLDRVENTTVYYLVLDVQESDCSVLSRKYWNDCEPPDSRRPSEIVIGQCKVIATRHSHESQDLRVIDFNCTTSSVSSALANTKDSPVLIDFFEDTERYRKQANKALEKYKEENDDFASFRVDRIERVARVRGGEGTGYFVDFSVRNCPRHHFPRHPNVFGFCRADLFYDVEALDLESPKNLVINCEVFDPQEHENINGVPPHLGHPFHWGGHERSSTTKPPFKPHGSRDHHHPHKPHEHGPPPPPDERDHSHGPPLPQGPPPLLPMSCSSCQHATFGTNGAQRHSHNNNSSDLHPHKHHSHEQHPHGHHPHAHHPHEHDTHRQHPHGHHPHGHHPHGHHPHGHHPHGHHPHC",inhibition of chemotaxis of endothelial cells towards FGF-2,endothelial cells,did not inhibit endothelial cell chemotaxis
same,inhibition of chemotaxis of endothelial cells towards FGF-2,endothelial cells; listed as His4,failure of His4 to inhibit endothelial cell chemotaxis
"PCI: plasma protein of approximately the same mass as HRGP, specificity control (protein, UniProt P05154 26-406, looked up) Plasma serine protease …: EMKKRVEDLHVGATVAPSSRRDFTFDLYRALASAAPSQSIFFSPVSISMSLAMLSLGAGSSTKMQILEGLGLNLQKSSEKELHRGFQQLLQELNQPRDGFQLSLGNALFTDLVVDLQDTFVSAMKTLYLADTFPTNFRDSAGAMKQINDYVAKQTKGKIVDLLKNLDSNAVVIMVNYIFFKAKWETSFNHKGTQEQDFYVTSETVVRVPMMSREDQYHYLLDRNLSCRVVGVPYQGNATALFILPSEGKMQQVENGLSEKTLRKWLKMFKKRQLELYLPKFSIEGSYQLEKVLPSLGISNVFTSHADLSGISNHSNIQVSEMVHKAVVEVDESGTRAAAATGTIFTFRSARLNSQRLVFNRPFLMFIVDNNILFLGKVNRP",FGF-2-induced chemotaxis of BCE cells,primary BCE cells,no effect
"His-HRGP: recombinant full-length HRGP produced in HEK-293-EBNA cells with a His-tag (protein, left off: small tags and cut ends, recombinant full-length HRGP produced in HEK-293-EBNA cells with a His-tag) VSPTDCSAVEPEAEKALDLINKRRRDGYLFQLLRIADAHLDRVENTTVYYLVLDVQESDCSVLSRKYWNDCEPPDSRRPSEIVIGQCKVIATRHSHESQDLRVIDFNCTTSSVSSALANTKDSPVLIDFFEDTERYRKQANKALEKYKEENDDFASFRVDRIERVARVRGGEGTGYFVDFSVRNCPRHHFPRHPNVFGFCRADLFYDVEALDLESPKNLVINCEVFDPQEHENINGVPPHLGHPFHWGGHERSSTTKPPFKPHGSRDHHHPHKPHEHGPPPPPDERDHSHGPPLPQGPPPLLPMSCSSCQHATFGTNGAQRHSHNNNSSDLHPHKHHSHEQHPHGHHPHAHHPHEHDTHRQHPHGHHPHGHHPHGHHPHGHHPHGHHPHCHDFQDYGPCDPPPHNQGHCCHGHGPPPGHLRRRGPGKGPRPFHCRQIGSVYRLPPLRKGEVLPLPEANFPSFPLPHHKHPLKPDNQPFPQSVSESCPGKFKSGFPQVSMFFTHTFPK",reduction of tumour size compared to control-treated animals at sacrifice,"T241 fibrosarcoma cells; 5 mg/kg/day s.c. daily, control human IgG",61%
"Endostatin: anti-angiogenic factor included in one tumour study for comparison (protein, UniProt P39060 1572-1754, looked up, Endostatin, anti-angiogenic factor included in one tumour study for comparison) Endostatin: HSHRDFQPVLHLVALNSPLSGGMRGIRGADFQCFQQARAVGLAGTFRAFLSSRLQDLYSIVRRADRAAVPIVNLKDELLFPSWEALFSGSEGPLKPGARIFSFDGKDVLRHPTWPQKSVWHGSDPNGRRLTESYCETWRTEAPSATGQASSLLGGRLLGQSAASCHHAYIVLCIENSFMTASK",decrease of tumour growth,"T241 fibrosarcoma cells; 25 mg/kg/day, comparison",32%
"His 5: recombinant His/Pro-rich domain (central region) of human HRGP (protein, listed as Homo sapiens) HLGHPFHWGGHERSSTTKPPFKPHGSRDHHHPHKPHEHGPPPPPDERDHSHGPPLPQGPPPLLPMSCSSCQHATFGTNGAQRHSHNNNSSDLHPHKHHSHEQHPHGHHPHAHHPHEHDTHRQHPHGHHPHGHHPHGHHPHGHHPHGHHPHC",inhibition of chemotaxis of endothelial cells towards FGF-2,endothelial cells,inhibited chemotaxis
same,inhibition of chemotaxis of endothelial cells towards FGF-2,endothelial cells; listed as central region (His/Pro-rich domain) of human HRGP,inhibited chemotaxis as potently as the mature protein
same,inhibition of chemotaxis of endothelial cells towards FGF-2,endothelial cells; listed as central region of human HRGP,inhibit chemotaxis
